Results taken from patent US4749700A, “Novel methods of administering antihistamines, antinausea and antiemetic pharmaceutical agents and novel dosage forms containing same” (priority 1987, dated 1988).
Where a name gives a salt, the structure may show the parent alone. Read-outs that look alike come from different tables or passages of the source.

Key:
nasal polyps = conditions: cited from earlier work
[1] = 4-way crossover study of metoclopramide hydrochloride (nasal, oral, intramuscular) in volunteer human subjects; assay type: in vivo; conditions: for Tmax: human, in vivo, Time to Peak
Description: A 4-way crossover study was conducted in eight volunteer human subjects to compare the effects of the nasal administration of 5 and 10 mg of metoclopramide hydrochloride in a gel formulation, 10 mg of the same agent in an oral formulation and 5 mg of the product intramuscularly. The nasal formulation had the following composition: […]
______________________________________
BENZYL ALCOHOL N.F. 1.500 ml
SODIUM CHLORIDE U.S.P. 0.800 grams
ACETIC ACID, N.F. 0.320 grams
SODIUM ACETATE U.S.P. 0.077 grams
SORBITOL SOLUTION U.S.P.
METOCLOPRAMIDE HCL 5.000 grams
WATER PURIFIED U.S.P. q.s.
The oral and intramuscular compositions were commercial formulations available from A.G. Robbins Pharmaceutical Company, Richmond, Va., under the name Reglan.
The study was extended to dosage levels of 20 mg and 40 mg by the intranasal route using the same compositions.

in vivo = experiment: in vivo; parameters: species or system Sprague-Dawley male rats; conditions: rat
Description: Two Sprague-Dawley male rats each weighing 250 to 300 grams, anesthetized using sodium pentobarbital (50 mg/Kg of body weight), were administered nasally by micropipet a dosage level of 15 mg/Kg of body weight of the following composition:
216 mg metoclopramide.HCL (MCP.HCL)
895.2 mg polyethylene glycol (PEG 400)
The femoral artery was cannulated with heparinized polyethylene tubing (Clay Adams, PE-50) and blood samples were removed at the times indicated in Table 1.
The samples were analyzed by high pressure liquid chromatography (HPLC) as follows:
Column: Silica Column (4.6×250 mm)
Mobile Phase: CH2 Cl2 : MeOH:NH4 OH=90:10:0.5
Plasma (0.3 ml) was placed in a test tube and 0.1 ml of 1N NaOH was added. Four ml of methylene chloride was then added and the mixture shaken for 10 minutes on a reciprocal shaker, centrifuged for 3 minutes in an IEC clinical centrifuge and the upper layer removed by aspiration. A 3.0 ml aliquot of the methylene chloride layer was transferred to a second tube and evaporated to dryness with a streak of nitrogen gas. The resulting residue was then dissolved in 0.1 to 0.5 ml of mobile phase and submitted to HPLC analysis. […]

nausea and vomiting = experiment: Intranasal metoclopramide for control of nausea and vomiting in cancer patients; assay type: in vivo, human; conditions: intranasal 40 mg every four hours
Description: The patient was a person with Stage IV ovarian cancer.
Because of repeated nausea and vomiting due to bowel obstruction and other factors, intranasal metoclopramide at 40 mg per dose every four hours was employed for control of symptoms.

dogs = conditions: cited from earlier work
cats = conditions: same or larger amounts into the sinus; cited from earlier work

In the case of `CC1(C)O[C@@H]2C[C@H]3[C@@H]4C[C@H](F)C5=CC(=O)C=C[C@]5(C)[C@H]4[C@@H](O)C[C@]3(C)[C@]2(C(=O)CO)O1` [flunisolide], the topical antiinflammatory activity (nasal polyps) is listed as “excellent topical antiinflammatory”, the absorption (nasal polyps; nasal topical) is listed as “not rapidly absorbed” and the systemic activity (nasal polyps; nasal topical) is listed as “minimal systemic activity”.

For `CCN(CC)CCNC(=O)c1cc(Cl)c(N)cc1OC` [metoclopramide hydrochloride], the pharmacokinetic profiles ([1]; 10 mg nasal, 10 mg P.O. and 5 mg I.M. compared) was “statistically identical”, the local toxicity ([1]; during or after the study, 5 and 10 mg nasal, 10 mg P.O., 5 mg I.M.) was “No evidence of local toxicity” and the “local or systemic toxicity” value ([1]; extended study, 20 mg and 40 mg intranasal) was “no evidence of either local or systemic toxicity”. The Tmax [1] was 1.34 h, the Tmax ([1]; im) was 1.53 h and the Tmax ([1]; po) was 1.62 h. For the same compound, the “maintenance of high levels” value (in vivo) was “maintained for a longer period of time”, the “time to achieve maximum levels” value (in vivo) was “extended” and the Tmax (in vivo; 15 mg/kg) was 0.25 h. It also gave a Concentration (in vivo; 15 mg/kg, 0.25 h) of 1.61 ± 0.23 ug/ml plasma, a Concentration (in vivo; 15 mg/kg, 0.5 h) of 1.55 ± 0.18 ug/ml plasma and a Concentration (in vivo; 15 mg/kg, 0.75 h) of 1.30 ± 0.18 ug/ml plasma. For the same compound, the Concentration (in vivo; 15 mg/kg, 1 h) was 1.26 ± 0.3 ug/ml plasma, the Concentration (in vivo; 15 mg/kg, 1.25 h) was 1.62 ± 0.17 ug/ml plasma and the Concentration (in vivo; 15 mg/kg, 1.5 h) was 1.63 ± 0.18 ug/ml plasma. The Concentration (in vivo; 15 mg/kg, 2 h) was 1.55 ± 0.26 ug/ml plasma, the Concentration (in vivo; 15 mg/kg, 4 h) was 1.29 ± 0.28 ug/ml plasma and the concentration at 0.25 h (in vivo; 15 mg/kg, Concentration) was 850 ± 120 ng/mL. The concentration at 0.5 h (in vivo; 15 mg/kg, Concentration) was 1370 ± 210 ng/mL, the concentration at 0.75 h (in vivo; 15 mg/kg, Concentration) was 1510 ± 180 ng/mL and the concentration at 1 h (in vivo; 15 mg/kg, Concentration) was 1610 ± 50 ng/mL. The concentration at 1.25 h (in vivo; 15 mg/kg, Concentration) was 1110 ± 340 ng/mL, the concentration at 1.5 h (in vivo; 15 mg/kg, Concentration) was 1040 ± 350 ng/mL and the concentration at 2 h (in vivo; 15 mg/kg, Concentration) was 1100 ± 380 ng/mL. For the same compound, the concentration at 2.5 h (in vivo; 15 mg/kg, Concentration) was 1550 ± 210 ng/mL, the concentration at 3 h (in vivo; 15 mg/kg, Concentration) was 1090 ± 360 ng/mL and the concentration at 4 h (in vivo; 15 mg/kg, Concentration) was 940 ng/mL.

With `CCN(CC)CCNC(=O)c1cc(Cl)c(N)cc1OC` [metoclopramide] the benefit from treatment (nausea and vomiting; five more cancer patients refractory to other antinausea treatments) was “All patients benefited from the treatment” and the control of nausea (nausea and vomiting; one patient, Stage IV ovarian cancer with bowel obstruction) was “contained their nausea between occasional bouts of vomiting”.

In the case of `CN1CCCC1c1cccnc1` (centres unmarked) [nicotine], the pressor response (dogs; injection of 1 mg) is given as “immediate and marked pressor response”, the pressor response (dogs; same or larger amounts into the sinus) is given as “little or no effect” and the pressor response (cats) is given as “little or no effect”.
